{"source": "paper PMC5589937", "about": "(Scientific Reports, 2017)", "molecules": {"B1": {"name": "hGIIE (Homo sapiens) (protein)", "chain": "NLVQFGVMIEKMTGKSALQYNDYGCYCGIGGSHWPVDQTDWCCHAHDCCYGRLEKLGCEPKLEKYLFSVSERGIFCAGRTTCQRLTCECDKRAALCFRRNLGTYNRKYAHYPNKLCTGPTPPC"}}, "key": {"hGIB": {"tested_on": "hGIB", "design": "method as in PMID 16686528", "conditions": "cited from earlier work"}, "hGV": {"tested_on": "hGV", "conditions": "cited from earlier work"}, "hGX": {"tested_on": "hGX", "conditions": "cited from earlier work"}, "severe sepsis": {"tested_on": "severe sepsis", "design": "method as in PMID 16096451", "conditions": "trials terminated; experiment group; cited from earlier work"}, "hGIIE N21W": {"molecular_target": "T1, hGIIE N21W (Homo sapiens, UniProt Q9NZK7, N40W)", "T1 construct": "The gene encoding for hGIIE protein without signal peptide was amplified by PCR; made in house; host or cells: Pichia pastoris X33 (vector pGAPZαA)", "T1 sequence (Q9NZK7 20-142 N40W)": "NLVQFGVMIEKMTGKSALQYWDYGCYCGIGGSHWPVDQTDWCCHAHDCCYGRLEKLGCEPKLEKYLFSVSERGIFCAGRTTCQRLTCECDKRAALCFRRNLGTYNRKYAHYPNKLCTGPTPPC", "assay": "Inhibition of hGIIE mutant N21W, sPLA2 assay kit", "type": "biochemical", "conditions": "N21W enzyme 30 µM; mean ± s.d., n=2; read-out: IC50 against hGIIE N21W", "protocol": "(§1) Enzymatic Kinetics of hGIIE assay was carried out using sPLA2 Assay kit (Cayman, Ann Arbor, MI, USA). Substrate of this assay is 1, 2-Diheptanoyl Thio-phosphatidylcholine (DTPC). After hydrolysis of the thio ester bond in the sn-2 position by phospholipase A2, free thiols are detected using 5, 5-dithio-bis-nitrobenzoic acid (DTNB). Activity assay was carried out on a 96-well plate at 25 °C. 10 µL DTNB, 10 µL protein sample and 5 µL buffer (25 mM Tris-HCl, pH 7.5, 10 mM CaCl2, 100 mM KCl, 0.3 mM Triton X-100) were pooled in the well, then the reaction was initiated by adding 200 µL substrate solution to the well simultaneously. Absorbance at 414 nm was measured every 1 min for 15 min. […] Protein concentration was adjusted to ensure the absorbance increase of 0.01 to 0.1 per minute. Curve was fitted to Michaelis-Menten equation and Lineweaver-Burk plot for the estimation of Km and Vmax using GraphPad Prism 5, Kcat was calculated by Vmax/enzyme concentration.\n(§2) Inhibition of wild type (WT) and mutated hGIIE was analyzed using sPLA2 assay kit as mentioned above. In the assay system, 5 µL assay buffer was replaced by 5 µL of the inhibitor. Different concentrations of compound 8, 14, 24, Me-Indoxam, and LY311727 were prepared. The final concentration of enzyme used per well are as following: WT: 6.42 µM; F5L: 6.4 µM; F97L: 10.48 µM; F5L_F97L: 6.73 µM; G6H: 10.91 µM; G6N: 7.56 µM; N21G: 32.86 µM; N21M: 22.14 µM; N21W: 30 µM. Control reactions without enzyme or inhibitor were carried out. Percent inhibition of every well were calculated. Curve was fitted to the log (inhibitor)-response variable slope and IC50 was calculated using GraphPad Prism 5 (GraphPad)."}, "hGIIE N21G": {"molecular_target": "T2, hGIIE N21G (Homo sapiens, UniProt Q9NZK7, N40G)", "T2 construct": "The gene encoding for hGIIE protein without signal peptide was amplified by PCR; made in house; host or cells: Pichia pastoris X33 (vector pGAPZαA)", "T2 sequence (Q9NZK7 20-142 N40G)": "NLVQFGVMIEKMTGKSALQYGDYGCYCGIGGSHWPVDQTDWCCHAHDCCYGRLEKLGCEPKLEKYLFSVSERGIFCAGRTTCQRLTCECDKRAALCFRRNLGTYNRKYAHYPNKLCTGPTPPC", "assay": "Inhibition of hGIIE mutant N21G, sPLA2 assay kit", "type": "biochemical", "conditions": "N21G enzyme 32.86 µM; mean ± s.d., n=2; read-out: IC50 against hGIIE N21G", "protocol": "as §1, §2"}, "hGIIE G6N": {"molecular_target": "T3, hGIIE G6N (Homo sapiens, UniProt Q9NZK7, G25N)", "T3 construct": "The gene encoding for hGIIE protein without signal peptide was amplified by PCR; made in house; host or cells: Pichia pastoris X33 (vector pGAPZαA)", "T3 sequence (Q9NZK7 20-142 G25N)": "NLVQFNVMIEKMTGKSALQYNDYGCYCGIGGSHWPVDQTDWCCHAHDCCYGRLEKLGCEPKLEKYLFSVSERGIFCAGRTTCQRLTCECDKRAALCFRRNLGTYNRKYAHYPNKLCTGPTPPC", "assay": "Inhibition of hGIIE mutant G6N, sPLA2 assay kit", "type": "biochemical", "conditions": "G6N enzyme 7.56 µM; mean ± s.d., n=2; read-out: IC50 against hGIIE G6N", "protocol": "as §1, §2"}, "hGIIE N21M": {"molecular_target": "T4, hGIIE N21M (Homo sapiens, UniProt Q9NZK7, N40M)", "T4 construct": "The gene encoding for hGIIE protein without signal peptide was amplified by PCR; made in house; host or cells: Pichia pastoris X33 (vector pGAPZαA)", "T4 sequence (Q9NZK7 20-142 N40M)": "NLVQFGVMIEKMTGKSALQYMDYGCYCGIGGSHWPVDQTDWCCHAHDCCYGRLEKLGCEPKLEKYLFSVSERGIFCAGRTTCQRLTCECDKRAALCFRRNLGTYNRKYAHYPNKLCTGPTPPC", "assay": "Inhibition of hGIIE mutant N21M, sPLA2 assay kit", "type": "biochemical", "conditions": "N21M enzyme 22.14 µM; mean ± s.d., n=2; read-out: IC50 against hGIIE N21M", "protocol": "as §1, §2"}, "hGIIE F5L_F97L": {"molecular_target": "T5, hGIIE F5L_F97L (Homo sapiens, UniProt Q9NZK7, F116L/F24L)", "T5 construct": "The gene encoding for hGIIE protein without signal peptide was amplified by PCR; made in house; host or cells: Pichia pastoris X33 (vector pGAPZαA)", "T5 sequence (Q9NZK7 20-142 F24L/F116L)": "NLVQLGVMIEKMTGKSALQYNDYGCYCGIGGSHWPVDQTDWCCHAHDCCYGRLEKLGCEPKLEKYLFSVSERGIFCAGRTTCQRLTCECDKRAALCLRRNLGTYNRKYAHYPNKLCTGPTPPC", "assay": "Inhibition of hGIIE double mutant F5L_F97L, sPLA2 assay kit", "type": "biochemical", "conditions": "F5L_F97L enzyme 6.73 µM; mean ± s.d., n=2; read-out: IC50 against hGIIE F5L_F97L", "protocol": "as §1, §2"}, "hGIIA": {"tested_on": "hGIIA", "conditions": "measure not given; read-out: potency to hGIIA; cited from earlier work"}, "hGIIE F5L": {"molecular_target": "T6, hGIIE F5L (Homo sapiens, UniProt Q9NZK7, F24L)", "T6 construct": "The gene encoding for hGIIE protein without signal peptide was amplified by PCR; made in house; host or cells: Pichia pastoris X33 (vector pGAPZαA)", "T6 sequence (Q9NZK7 20-142 F24L)": "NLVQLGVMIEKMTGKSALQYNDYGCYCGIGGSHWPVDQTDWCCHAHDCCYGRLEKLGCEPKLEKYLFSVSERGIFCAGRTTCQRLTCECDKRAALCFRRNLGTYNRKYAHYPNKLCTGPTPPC", "assay": "Inhibition of hGIIE mutant F5L, sPLA2 assay kit", "type": "biochemical", "conditions": "F5L enzyme 6.4 µM; mean ± s.d., n=2; read-out: IC50 against hGIIE F5L", "protocol": "as §1, §2"}, "WT hGIIE": {"molecular_target": "T7, WT hGIIE (Homo sapiens, UniProt Q9NZK7)", "T7 construct": "The gene encoding for hGIIE protein without signal peptide was amplified by PCR; made in house; host or cells: Pichia pastoris X33 (vector pGAPZαA)", "T7 sequence (Q9NZK7 20-142)": "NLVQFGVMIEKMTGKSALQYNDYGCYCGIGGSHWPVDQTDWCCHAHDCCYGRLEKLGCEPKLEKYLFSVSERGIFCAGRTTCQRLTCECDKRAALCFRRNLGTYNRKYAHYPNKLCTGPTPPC", "assay": "Inhibition of wild type hGIIE, sPLA2 assay kit (DTPC substrate, DTNB detection)", "type": "biochemical", "conditions": "WT enzyme 6.42 µM per well; mean ± s.d., n=2; read-out: IC50 against WT hGIIE", "protocol": "as §1, §2"}, "hGIIE G6H": {"molecular_target": "T8, hGIIE G6H (Homo sapiens, UniProt Q9NZK7, G25H)", "T8 construct": "The gene encoding for hGIIE protein without signal peptide was amplified by PCR; made in house; host or cells: Pichia pastoris X33 (vector pGAPZαA)", "T8 sequence (Q9NZK7 20-142 G25H)": "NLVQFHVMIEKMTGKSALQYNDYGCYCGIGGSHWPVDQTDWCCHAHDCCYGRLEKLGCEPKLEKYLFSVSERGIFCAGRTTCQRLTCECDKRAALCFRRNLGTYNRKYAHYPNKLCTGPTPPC", "assay": "Inhibition of hGIIE mutant G6H, sPLA2 assay kit", "type": "biochemical", "conditions": "G6H enzyme 10.91 µM; mean ± s.d., n=2; read-out: IC50 against hGIIE G6H", "protocol": "as §1, §2"}, "hGIIE F97L": {"molecular_target": "T9, hGIIE F97L (Homo sapiens, UniProt Q9NZK7, F116L)", "T9 construct": "The gene encoding for hGIIE protein without signal peptide was amplified by PCR; made in house; host or cells: Pichia pastoris X33 (vector pGAPZαA)", "T9 sequence (Q9NZK7 20-142 F116L)": "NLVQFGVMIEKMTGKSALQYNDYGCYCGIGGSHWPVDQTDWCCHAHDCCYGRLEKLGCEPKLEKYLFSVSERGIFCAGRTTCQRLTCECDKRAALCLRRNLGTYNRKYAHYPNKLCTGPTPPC", "assay": "Inhibition of hGIIE mutant F97L, sPLA2 assay kit", "type": "biochemical", "conditions": "F97L enzyme 10.48 µM; mean ± s.d., n=2; read-out: IC50 against hGIIE F97L", "protocol": "as §1, §2"}, "hGIIE": {"molecular_target": "T10, hGIIE (Homo sapiens, UniProt Q9NZK7)", "T10 construct": "The gene encoding for hGIIE protein without signal peptide was amplified by PCR; made in house; host or cells: Pichia pastoris X33 (vector pGAPZαA)", "T10 sequence (Q9NZK7 20-142)": "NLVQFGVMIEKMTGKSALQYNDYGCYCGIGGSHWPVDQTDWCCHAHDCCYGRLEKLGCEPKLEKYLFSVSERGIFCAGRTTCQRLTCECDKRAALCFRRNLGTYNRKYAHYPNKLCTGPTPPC", "conditions": "measure not given; read-out: potency to hGIIE; cited from earlier work"}, "rheumatoid arthritis": {"tested_on": "rheumatoid arthritis", "design": "method as in PMID 15742431", "conditions": "clinically tested; cited from earlier work"}, "cardiovascular diseases": {"tested_on": "cardiovascular diseases", "conditions": "treatment of cardiovascular diseases; cited from earlier work"}, "[1]": {"substrate": "CCCCCC(=O)OC[C@H](COP(=O)([O-])OCC[N+](C)(C)C)OC(=O)CCCCC", "assay": "purified protein, by the assay type", "conditions": "other: ITC, 25 °C, 2 µM hGIIE, pH 7.5, 10 mM CaCl2", "experimental": "Reactions were performed with Microcal ITC200 (GE Healthcare) at 25 °C, and data were collected and analyzed by ORIGIN. A multiple injection kinetic assay was conducted using a stirring speed of 750 rpm. 2 µM protein hGIIE (200 µL) in the reaction cell was titrated with 13 × 3 µL injection of phospholipid (10–50 mM) using a 120 s delay between successive injections. The apparent enthalpy (ΔH) for the hydrolysis of phospholipid by hGIIE was determined in a separate experiment in which 1 × 6 µL injections of phospholipid into 2 µM protein hGIIE (200 µL) was made using spacing 1800 s. Buffer solution was carefully matched in both the ligand and enzyme solutions. Mother liquor of phospholipids including DHPG (in water), DHPC (in DMSO), DHPE (in DMSO) (Avanti) with 200 mM concentration were prepared. Working buffer (20 mM DHPG, 50 mM DHPC, 10 mM DHPE) is prepared by diluting the mother liquor with buffer 100 mM Tris, 150 mM KCl, 10 mM CaCl2, pH 7.5."}}}
{"molecule": "CCc1c(C(=O)C(N)=O)c2c(OCC(=O)O)cccc2n1Cc1ccccc1", "note": "[LY315920, Varespladib]", "values": [{"measurement": "IC50", "setting": "hGIB", "result": 750, "unit": "nM"}, {"measurement": "IC50", "setting": "hGV", "result": 500, "unit": "nM"}, {"measurement": "IC50", "setting": "hGX", "result": 75, "unit": "nM"}]}
{"molecule": "CCc1c(C(=O)C(N)=O)c2c(OCC(=O)[O-])cccc2n1Cc1ccccc1.[Na+]", "note": "[LY315920: Na]", "values": [{"measurement": "outcome of clinical trials in severe sepsis", "setting": "severe sepsis", "result": "higher mortality rate"}]}
{"molecule": "Cc1c(C(=O)C(N)=O)c2c(OCC(=O)O)cccc2n1Cc1ccccc1-c1ccccc1", "note": "[Me-Indoxam]", "values": [{"measurement": "IC50", "setting": "hGIIE N21W", "result": "1440 ± 130", "unit": "nM"}, {"measurement": "IC50", "setting": "hGIIE N21G", "result": "1840 ± 30", "unit": "nM"}, {"measurement": "IC50", "setting": "hGIIE G6N", "result": "140 ± 20", "unit": "nM"}, {"measurement": "IC50", "setting": "hGIIE N21M", "result": "880 ± 10", "unit": "nM"}, {"measurement": "IC50", "setting": "hGIIE F5L_F97L", "result": "240 ± 30", "unit": "nM"}, {"measurement": "IC50", "setting": "hGIIA", "result": 30, "unit": "nM"}, {"measurement": "IC50", "setting": "hGIIE F5L", "result": "160 ± 10", "unit": "nM"}, {"measurement": "IC50", "setting": "WT hGIIE", "result": "210 ± 10", "unit": "nM"}, {"measurement": "IC50", "setting": "hGIIE G6H", "result": "300 ± 20", "unit": "nM"}, {"measurement": "IC50", "setting": "hGIIE F97L", "result": "260 ± 20", "unit": "nM"}, {"measurement": "IC50", "setting": "hGIIE", "result": 8, "unit": "nM"}]}
{"molecule": "CCc1c(C(=O)C(N)=O)c2c(OCC(=O)OC)cccc2n1Cc1ccccc1", "note": "[Varespladib methyl]", "values": [{"measurement": "efficacy in treatment of rheumatoid arthritis", "setting": "rheumatoid arthritis", "result": "ineffective"}, {"measurement": "adverse effects in phase three trials", "setting": "cardiovascular diseases", "result": "increased events of cardiovascular mortality, heart attack, and stroke"}]}
{"molecule": "B1", "values": [{"measurement": "Km", "setting": "[1]", "result": "5.52 ± 1.00", "unit": "mM"}, {"measurement": "kcat", "setting": "[1]", "result": "3.22 ± 0.30", "unit": "s⁻¹"}]}
